Laboratory results published in US8895602B1, “6-pyrazolylamido-3-substituted azabicyclo[3.1.0]hexane compounds as calcium channel inhibitors” (Korea Institute of Science and Technology, priority 2013, dated 2014).

How the values were obtained:
[1] = test system: human lung carcinoma (A-549) cells; test: Anticancer screening, SRB assay, A-549; type: cell-based; settings: A 549, 48 hours incubation, concentration not given
Method: (§1) Anticancer Effect Screening Test
(§2) All the cancer cells are human-derived tumor cells and were acquired from the Korean Cell Line Bank.
(§3) 2) Measurement of Anticancer Activity
(§4) After incubation in a CO2 incubator for 24 hours, the culture medium was removed and 100 μL of the test compound which was diluted 4-fold was added. After incubation for 48 hours, the cells were fixed by adding 100 μL of formalin solution. Then, the cells were washed 5 times with distilled water and dried at room temperature. After adding 100 μL of 0.4% SRB solution and keeping at room temperature for 30 minutes, the cells were washed 5 times with 1% acetic acid and dried at room temperature.
(§5) To evaluate the anticancer activity of the test compound against the cancer cells, the GI50 value was calculated according to Equation 1 or 2. Anticancer activity (%)=[…] Equation 1
(§6) In Equation 1, T0 represents the number of cells before adding the test compound and T2 represents the number of cells after adding the test compound and incubating for 48 hours. Anticancer activity (%)=[…] Equation 2
(§7) The inhibition of cancer cell growth by the test compound (% inhibition) was determined by data regression using the Lotus program from the values calculated according to Equation 1 and the IC50 value was calculated from the % inhibition.

[2] = test system: human prostate carcinoma (LNCaP) cells; test: Anticancer screening, SRB assay, LNCaP; type: cell-based; settings: 48 hours incubation, concentration not given
Method: as §1, §2, §3, §4, §5, §6, §7

[3] = test system: human esophageal carcinoma (KYSE410) cells; test: Anticancer screening, SRB assay, KYSE410; type: cell-based; settings: KYSE410, 48 hours incubation, concentration not given
Method: as §1, §2, §3, §4, §5, §6, §7

[4] = test system: human glioma (U87-MG) cells; test: Anticancer screening, SRB assay, U87-MG; type: cell-based; settings: 48 hours incubation, concentration not given
Method: as §1, §2, §3, §4, §5, §6, §7

[5] = test system: human liver carcinoma (HepG2) cells; test: Anticancer screening, SRB assay, HepG2; type: cell-based; settings: HepG2, 48 hours incubation, concentration not given
Method: as §1, §2, §3, §4, §5, §6, §7

[6] = test system: human breast cancer (MCF-7) cells; test: Anticancer screening, SRB assay, MCF-7; type: cell-based; settings: MCF-7, 48 hours incubation, concentration not given
Method: as §1, §2, §3, §4, §5, §6, §7

[7] = test system: human fibroblastoma (HT-1080) cells; test: Anticancer screening, SRB assay, HT-1080; type: cell-based; settings: HT1080, 48 hours incubation, concentration not given
Method: as §1, §2, §3, §4, §5, §6, §7

[8] = target: T1, α1G T-type calcium channel (Homo sapiens, UniProt O43497); test: Antagonistic activity against T-type calcium channel (FDSS6000 / whole-cell patch clamp in HEK293 cells), α1G; type: cell-based
T1 construct: host or cells: HEK293
Method: (§8) Test of Antagonistic Activity Against T-Type Calcium Channel
Then, as secondary screening, the effective inhibitory concentration IC50 for human HEK293 cells was obtained by measuring the potential of Ca^2+.
1) Measurement of T-Type Calcium Channel Activity Using FDSS6000
Subsequently, 10 minutes prior to the FDSS6000 measurement, the cells were washed with HEPES buffer containing 10 mM CaCl2 once and the final volume was adjusted to 81 μL. Separately from the 96-well plate with the cells, two 96-well drug plates were prepared, one containing KCl (final concentration 75 mM) for activating the T-type calcium channel and the other containing the blocking agent (test compound). […] For the FDSS6000 measurement, after baseline recording for 20 seconds, the cells were pretreated with the test compound for 75 seconds and the change in intracellular calcium concentration induced by KCl was measured. The % inhibition by the test compound was calculated as integrated values of the 340/380 ratio relative to the untreated control group. […]
For calcium imaging, the cells were selectively exposed to light of excitation wavelengths (340 nm and 380 nm) with four xenon lamps installed in the FDSS6000 device using a computer-controlled filter wheel. The emitted fluorescence light that passed through a 515 nm long-pass filter was passed through a freezing CCD camera mounted in the device. […]

[9] = target: α1H T-type calcium channel (Homo sapiens, UniProt O95180); test: Antagonistic activity against T-type calcium channel, α1H; type: cell-based
Method: as §8
2) Measurement of T-Type Calcium Channel Activity in HEK293 Cells by Whole-Cell Patch Clamp Electrophysiology
The culture medium was replaced with a fresh one every 3-4 days and the cells were subcultured every week. […] The T-type calcium channel current at single cell level was measured by whole-cell patch clamp electrophysiology using an EPC-9 amplifier (HEKA, Germany). For the T-type calcium channel activity measurement, an extracellular solution (140 mM NaCl, 2 mM CaCl2, 10 mM HEPES, pH 7.4) and an intracellular solution (130 mM KCl, 10 mM HEPES, 11 mM EGTA, 5 mM MgATP, pH 7.4) were used. […] Thereafter, the cell membrane potential was fixed to −100 mV and the inward current evoked by the T-type calcium channel activity was measured every 10 seconds at hypopolarization with −30 mV (50 ms duration). Each compound was dissolved in 100% dimethyl sulfoxide (DMSO) to make a 10 mM stock solution. […] More specifically, the cells were treated with each compound together with the extracellular solution for 30-60 seconds and the % inhibition was determined by calculating the inhibition of peak current induced by the compound.

[10] = spinal nerve ligation model; cited from earlier work

Chain of α1H T-type calcium channel (O95180 whole entry): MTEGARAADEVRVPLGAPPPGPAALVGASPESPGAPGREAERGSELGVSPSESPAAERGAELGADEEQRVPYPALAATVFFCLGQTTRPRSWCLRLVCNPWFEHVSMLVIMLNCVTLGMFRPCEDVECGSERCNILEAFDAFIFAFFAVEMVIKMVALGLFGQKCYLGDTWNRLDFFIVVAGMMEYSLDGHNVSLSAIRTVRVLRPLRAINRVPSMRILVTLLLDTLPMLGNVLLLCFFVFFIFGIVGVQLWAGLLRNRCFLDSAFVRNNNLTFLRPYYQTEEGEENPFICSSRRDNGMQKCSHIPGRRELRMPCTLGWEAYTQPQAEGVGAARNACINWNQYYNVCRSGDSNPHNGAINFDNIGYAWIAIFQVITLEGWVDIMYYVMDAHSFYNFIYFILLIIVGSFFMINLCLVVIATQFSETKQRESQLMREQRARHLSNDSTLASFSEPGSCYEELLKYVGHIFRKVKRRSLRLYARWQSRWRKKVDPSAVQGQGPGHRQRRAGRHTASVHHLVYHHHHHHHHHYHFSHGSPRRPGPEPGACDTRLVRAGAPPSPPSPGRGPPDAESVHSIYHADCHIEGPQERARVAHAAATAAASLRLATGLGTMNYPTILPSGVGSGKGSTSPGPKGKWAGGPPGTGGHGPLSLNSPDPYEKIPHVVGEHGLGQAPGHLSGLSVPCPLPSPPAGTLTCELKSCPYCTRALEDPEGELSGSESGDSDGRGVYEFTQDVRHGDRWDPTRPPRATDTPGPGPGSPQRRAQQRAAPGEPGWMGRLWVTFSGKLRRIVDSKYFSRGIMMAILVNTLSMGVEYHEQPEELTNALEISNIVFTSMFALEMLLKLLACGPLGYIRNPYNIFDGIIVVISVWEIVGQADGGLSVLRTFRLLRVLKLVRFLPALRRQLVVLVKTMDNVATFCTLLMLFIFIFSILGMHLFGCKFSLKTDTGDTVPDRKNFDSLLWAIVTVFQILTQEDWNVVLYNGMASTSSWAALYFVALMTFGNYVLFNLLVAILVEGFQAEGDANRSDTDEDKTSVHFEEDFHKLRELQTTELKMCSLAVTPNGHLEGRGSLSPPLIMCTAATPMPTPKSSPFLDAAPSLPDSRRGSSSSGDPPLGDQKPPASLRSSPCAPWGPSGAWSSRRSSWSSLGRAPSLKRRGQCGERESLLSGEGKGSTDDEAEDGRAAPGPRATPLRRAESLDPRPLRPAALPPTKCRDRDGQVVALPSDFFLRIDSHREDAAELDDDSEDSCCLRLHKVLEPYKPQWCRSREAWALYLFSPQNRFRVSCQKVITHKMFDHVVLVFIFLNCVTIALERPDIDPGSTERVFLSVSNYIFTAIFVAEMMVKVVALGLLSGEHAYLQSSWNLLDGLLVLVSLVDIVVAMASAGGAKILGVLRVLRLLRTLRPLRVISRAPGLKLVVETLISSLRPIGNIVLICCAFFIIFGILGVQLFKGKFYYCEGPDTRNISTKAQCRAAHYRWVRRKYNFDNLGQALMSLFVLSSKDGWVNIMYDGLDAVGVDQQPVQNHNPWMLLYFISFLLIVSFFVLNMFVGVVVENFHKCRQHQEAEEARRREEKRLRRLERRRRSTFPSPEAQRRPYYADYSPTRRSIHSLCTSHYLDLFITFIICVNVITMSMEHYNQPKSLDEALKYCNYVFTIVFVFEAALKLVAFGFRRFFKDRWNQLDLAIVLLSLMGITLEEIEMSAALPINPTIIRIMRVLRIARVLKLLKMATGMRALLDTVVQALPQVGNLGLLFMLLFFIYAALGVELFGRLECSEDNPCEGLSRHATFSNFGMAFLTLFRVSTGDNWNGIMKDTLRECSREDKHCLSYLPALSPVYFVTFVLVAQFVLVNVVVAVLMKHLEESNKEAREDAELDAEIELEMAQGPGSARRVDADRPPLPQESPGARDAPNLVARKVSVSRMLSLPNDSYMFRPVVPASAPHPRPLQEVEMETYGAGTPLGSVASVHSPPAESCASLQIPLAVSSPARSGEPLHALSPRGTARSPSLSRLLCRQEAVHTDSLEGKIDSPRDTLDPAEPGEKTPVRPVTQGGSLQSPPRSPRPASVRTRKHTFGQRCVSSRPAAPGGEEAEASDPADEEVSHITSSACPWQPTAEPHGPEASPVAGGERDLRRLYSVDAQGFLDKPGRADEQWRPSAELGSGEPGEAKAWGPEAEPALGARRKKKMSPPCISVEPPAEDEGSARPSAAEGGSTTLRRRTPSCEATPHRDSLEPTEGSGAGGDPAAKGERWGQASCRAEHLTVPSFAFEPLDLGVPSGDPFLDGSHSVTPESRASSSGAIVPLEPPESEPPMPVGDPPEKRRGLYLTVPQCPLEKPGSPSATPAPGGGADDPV
T1 sequence (O43497 whole entry): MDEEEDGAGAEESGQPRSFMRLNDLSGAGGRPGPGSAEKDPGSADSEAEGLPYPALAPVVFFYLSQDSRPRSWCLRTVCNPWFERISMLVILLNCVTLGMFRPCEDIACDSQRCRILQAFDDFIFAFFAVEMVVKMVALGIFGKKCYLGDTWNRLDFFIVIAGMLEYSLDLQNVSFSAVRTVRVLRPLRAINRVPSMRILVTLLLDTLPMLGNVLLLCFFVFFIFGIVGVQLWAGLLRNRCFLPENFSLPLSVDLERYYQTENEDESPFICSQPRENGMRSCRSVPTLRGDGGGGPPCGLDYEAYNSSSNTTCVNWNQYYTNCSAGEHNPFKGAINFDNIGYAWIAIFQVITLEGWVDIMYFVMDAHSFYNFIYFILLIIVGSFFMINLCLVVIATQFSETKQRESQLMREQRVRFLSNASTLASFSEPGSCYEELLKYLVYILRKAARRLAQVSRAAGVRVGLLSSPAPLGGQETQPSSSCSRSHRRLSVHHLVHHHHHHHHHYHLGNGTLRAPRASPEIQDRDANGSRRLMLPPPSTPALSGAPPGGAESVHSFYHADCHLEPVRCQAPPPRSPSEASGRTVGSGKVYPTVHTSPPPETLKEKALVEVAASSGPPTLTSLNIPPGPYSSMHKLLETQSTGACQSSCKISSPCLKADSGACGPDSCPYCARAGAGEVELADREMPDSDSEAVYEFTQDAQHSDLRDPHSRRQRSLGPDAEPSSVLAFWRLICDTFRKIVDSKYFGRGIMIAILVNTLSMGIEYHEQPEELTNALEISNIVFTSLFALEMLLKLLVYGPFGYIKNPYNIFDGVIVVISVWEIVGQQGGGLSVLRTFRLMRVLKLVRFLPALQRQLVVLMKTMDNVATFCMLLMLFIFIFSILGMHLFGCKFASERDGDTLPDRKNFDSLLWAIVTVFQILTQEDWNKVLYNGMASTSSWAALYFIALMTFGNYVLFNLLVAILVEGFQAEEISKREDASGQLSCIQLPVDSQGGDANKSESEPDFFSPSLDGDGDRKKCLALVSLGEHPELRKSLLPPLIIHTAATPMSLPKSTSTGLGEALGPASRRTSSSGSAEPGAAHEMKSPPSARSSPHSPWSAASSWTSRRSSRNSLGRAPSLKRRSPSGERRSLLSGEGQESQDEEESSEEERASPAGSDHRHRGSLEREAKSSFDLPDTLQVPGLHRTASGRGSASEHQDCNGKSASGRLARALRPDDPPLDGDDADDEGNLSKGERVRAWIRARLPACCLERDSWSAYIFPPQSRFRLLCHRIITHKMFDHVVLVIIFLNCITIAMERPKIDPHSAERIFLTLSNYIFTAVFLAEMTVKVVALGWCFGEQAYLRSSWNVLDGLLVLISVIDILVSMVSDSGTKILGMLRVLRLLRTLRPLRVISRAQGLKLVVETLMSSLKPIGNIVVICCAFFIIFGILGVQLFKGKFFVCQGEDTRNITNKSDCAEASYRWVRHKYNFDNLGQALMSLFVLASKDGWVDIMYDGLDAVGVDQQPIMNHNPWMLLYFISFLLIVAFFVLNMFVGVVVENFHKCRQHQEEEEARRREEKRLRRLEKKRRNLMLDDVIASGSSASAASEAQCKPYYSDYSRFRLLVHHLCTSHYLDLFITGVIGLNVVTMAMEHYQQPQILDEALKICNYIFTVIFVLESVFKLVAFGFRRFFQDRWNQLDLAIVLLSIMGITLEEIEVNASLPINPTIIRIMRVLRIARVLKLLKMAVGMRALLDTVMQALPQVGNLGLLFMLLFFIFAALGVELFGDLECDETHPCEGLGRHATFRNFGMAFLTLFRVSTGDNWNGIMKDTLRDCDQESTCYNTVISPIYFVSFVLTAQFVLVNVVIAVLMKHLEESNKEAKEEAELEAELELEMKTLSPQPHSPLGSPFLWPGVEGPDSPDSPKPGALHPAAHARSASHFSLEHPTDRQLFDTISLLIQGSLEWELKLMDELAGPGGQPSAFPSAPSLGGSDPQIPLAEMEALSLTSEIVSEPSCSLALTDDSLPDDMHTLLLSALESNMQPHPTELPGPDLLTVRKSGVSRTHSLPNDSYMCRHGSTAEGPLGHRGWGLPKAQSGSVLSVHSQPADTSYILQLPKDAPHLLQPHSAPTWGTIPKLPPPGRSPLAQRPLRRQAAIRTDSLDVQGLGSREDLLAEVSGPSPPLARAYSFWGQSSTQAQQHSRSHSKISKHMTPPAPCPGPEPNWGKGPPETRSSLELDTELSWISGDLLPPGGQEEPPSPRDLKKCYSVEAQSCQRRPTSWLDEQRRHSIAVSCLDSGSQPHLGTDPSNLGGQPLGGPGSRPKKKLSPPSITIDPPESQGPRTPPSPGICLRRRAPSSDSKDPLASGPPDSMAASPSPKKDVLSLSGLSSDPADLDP

Row | SMILES | % inhibition for cancer cells A 549 [1] [%] | % inhibition for cancer cells LNCaP [2] [%] | % inhibition for cancer cells KYSE410 [3] [%] | % inhibition for cancer cells U87-MG [4] [%] | % inhibition for cancer cells HepG2 [5] [%] | % inhibition for cancer cells MCF-7 [6] [%] | % inhibition for cancer cells HT1080 [7] [%] | inhibition at 10 µM [8] [%] | inhibition at 10 µM [9] [%] | effect on mechanically and thermally induced pain [10]
1 | CC(C)Cc1cc(CNC(=O)C2C3CN(CCC(C)(C)C)CC32)nn1-c1ccccc1 (centres unmarked) [Compound 1, 3-[3-(3,3-Dimethylbutyl)-3-azabicyclo[3.1.0]hexane-6-carboxamido]methyl-5-isobutyl-1-phenyl-1H-pyrazole] | 94.52 | 34.74 | 62.50 | 48.10 | 87.91 | 94.86 | 62.86 |  |  | 
2 | CC(C)Cc1cc(CNC(=O)C2C3CN(Cc4ccccc4)CC32)nn1-c1ccccc1 (centres unmarked) [Compound 2, 3-(3-Benzyl-3-azabicyclo[3.1.0]hexane-6-carboxamido)methyl-5-isobutyl-1-phenyl-1H-pyrazole] |  | 84.90 | 88.75 | 86.45 |  |  | 87.79 |  |  | 
3 | CC(C)Cc1cc(CNC(=O)C2C3CN(CCc4ccc(C(F)(F)F)cc4)CC32)nn1-c1ccccc1 (centres unmarked) [Compound 3, 5-Isobutyl-1-phenyl-3-{3-[4-(trifluoromethyl)phenylethyl]-3-azabicyclo[3.1.0]hexane-6-carboxamido}methyl-1H-pyrazole] | 75.64 | 92.29 | 92.33 | 89.21 | 67.82 | 85.44 | 87.64 | 60.5 | 64.6 | 
4 | CC(C)Cc1cc(CNC(=O)C2C3CN(C(=O)c4ccccc4)CC32)nn1-c1ccccc1 (centres unmarked) [Compound 4, 3-(3-Benzoyl-3-azabicyclo[3.1.0]hexane-6-carboxamido)methyl-5-isobutyl-1-phenyl-1H-pyrazole] | 94.52 | 73.31 | 56.84 | 56.49 | 89.44 | 95.00 | 75.39 |  |  | 
5 | CC(C)Cc1cc(CNC(=O)C2C3CN(C(=O)Cc4ccccc4)CC32)nn1-c1ccccc1 (centres unmarked) [Compound 5, 5-Isobutyl-1-phenyl-3-[3-(2-phenylacetyl)-3-azabicyclo[3.1.0]hexane-6-carboxamido]methyl-1H-pyrazole] | 94.61 | 62.24 | 48.62 | 45.39 | 89.16 | 95.24 | 67.10 | 81 | 89.9 | 
6 | CC(C)Cc1cc(C(=O)NCC2C3CN(CCC(C)(C)C)CC23)nn1-c1ccccc1 (centres unmarked) [Compound 7, 3-{2-[3-(3,3-Dimethylbutyl)-3-azabicyclo[3.1.0]hexane-6-yl]methyl}carbamoyl-5-isobutyl-1-phenyl-1H-pyrazole] | 93.14 | 49.98 | 86.46 | 89.43 | 98.18 | 94.67 | 88.79 |  |  | 
7 | Cc1ccc(NC(=O)c2ccc(CN3CCN(C)CC3)cc2)cc1Nc1nccc(-c2cccnc2)n1 [Gleevec, reference compound] | 94.17 | 82.56 | 75.92 | 86.51 | 90.81 | 95.19 | 92.04 |  |  | 
8 | C#Cc1cccc(Nc2ncnc3cc(OCCOC)c(OCCOC)cc23)c1 [Tarceva, reference compound] |  | 47.12 | 36.30 | 55.96 |  |  | 83.07 |  |  | 
9 | CCC1(C)CC(=O)NC1=O (centres unmarked) [ethosuximide] |  |  |  |  |  |  |  |  |  | inhibit mechanically and thermally induced pain in a dose-dependent manner
10 | COCC(=O)O[C@]1(CCN(C)CCCc2nc3ccccc3[nH]2)CCc2cc(F)ccc2[C@@H]1C(C)C [mibefradil] |  |  |  |  |  |  |  |  |  | inhibit mechanically and thermally induced pain in a dose-dependent manner
